Measurements taken from patent US20240336608A1, “IL4I1 INHIBITORS AND METHODS OF USE” (Merck Sharp & Dohme LLC, priority 2023, published 2024).

Each compound was assayed against T1, recombinant IL4I1 (Homo sapiens, UniProt Q96RQ9) (assay: IL4I1 Enzymatic Assay (Amplex Red/HRP coupled detection of H2O2, fluorescence)). Settings: 1 nM recombinant IL4I1; four-hour pre-incubation with compound; 1 mM each Phe, Tyr, Trp; ten-point titration.
T1 construct: purchased R&D Systems 5684-AO-020
T1 sequence (Q96RQ9 22-567): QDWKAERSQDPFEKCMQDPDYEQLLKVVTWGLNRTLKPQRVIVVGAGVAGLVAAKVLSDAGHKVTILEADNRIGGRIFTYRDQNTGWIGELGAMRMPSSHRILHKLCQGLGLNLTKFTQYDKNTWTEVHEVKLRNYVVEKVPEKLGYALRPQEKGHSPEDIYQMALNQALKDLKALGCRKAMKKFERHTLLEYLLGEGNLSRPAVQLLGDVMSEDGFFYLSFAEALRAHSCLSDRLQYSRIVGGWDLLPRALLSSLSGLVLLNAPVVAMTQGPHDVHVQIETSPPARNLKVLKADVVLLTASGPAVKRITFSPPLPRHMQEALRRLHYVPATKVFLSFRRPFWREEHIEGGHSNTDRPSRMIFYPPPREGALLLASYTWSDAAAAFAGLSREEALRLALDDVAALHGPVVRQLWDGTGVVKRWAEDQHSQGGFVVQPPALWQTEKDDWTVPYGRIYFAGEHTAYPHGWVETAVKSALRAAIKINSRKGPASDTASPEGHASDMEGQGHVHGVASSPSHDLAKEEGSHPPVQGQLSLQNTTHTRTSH
Assay type: biochemical
How it was run: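 H2O2 output was coupled to resorufin fluorescence (ex 544/em 590) via 0.05 mM Amplex Red and 1 U/mL HRP. Substrate: Phe, Tyr, Trp at 1 mM each; enzyme 1 nM, 4 h compound pre-incubation, 120 min reaction, pH 7.0 Hepes. EC50 by nonlinear four-parameter regression, 1:3 ten-point titration.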

| EC50 [nM] | Compound |
| --- | --- |
| 31 | CC(n1cc(C(=O)NCc2nnc(-c3ccccc3)s2)nn1)C(F)(F)F (stereo not shown) [Example 203, N-((5-phenyl-1,3,4-thiadiazol-2-yl)methyl)-1-(1,1,1-trifluoropropan-2-yl)-1H-1,2,3-triazole-4-carboxamide] |
| 74 | CC([C@H]1CCCO1)n1cc(C(=O)NCc2nnc(-c3ccccc3)s2)nn1 (stereo partly drawn) [Example 204, N-((5-phenyl-1,3,4-thiadiazol-2-yl)methyl)-1-(1-((R)-tetrahydrofuran-2-yl)ethyl)-1H-1,2,3-triazole-4-carboxamide] |
| 33 | C[C@H]1OCC[C@H]1Cn1cc(C(=O)NCc2nnc(-c3ccccc3)s2)nn1 [Example 205, 1-(((2R,3S)-2-methyltetrahydrofuran-3-yl)methyl)-N-((5-phenyl-1,3,4-thiadiazol-2-yl)methyl)-1H-1,2,3-triazole-4-carboxamide] |
| 226 | O=C(NCc1nnc(-c2ccccc2)s1)c1cn(C2CCCC(O)C2)nn1 (stereo not shown) [Example 206, 1-(3-hydroxycyclohexyl)-N-((5-phenyl-1,3,4-thiadiazol-2-yl)methyl)-1H-1,2,3-triazole-4-carboxamide] |
| 327 | O=C(NCc1nnc(-c2ccccc2)s1)c1cn(CCC2CCCO2)nn1 (stereo not shown) [Example 207, N-((5-phenyl-1,3,4-thiadiazol-2-yl)methyl)-1-(2-(tetrahydrofuran-2-yl)ethyl)-1H-1,2,3-triazole-4-carboxamide] |
| 711 | CC1(n2cc(C(=O)NCc3nnc(-c4ccccc4)s3)nn2)CC(F)(F)C1 [Example 208, 1-(3,3-difluoro-1-methylcyclobutyl)-N-((5-phenyl-1,3,4-thiadiazol-2-yl)methyl)-1H-1,2,3-triazole-4-carboxamide] |
| 146 | O=C(NCc1nnc(-c2ccccc2)s1)c1cn([C@H]2CCC[C@@H]2O)nn1 [Example 209, 1-((1S,2S)-2-hydroxycyclopentyl)-N-((5-phenyl-1,3,4-thiadiazol-2-yl)methyl)-1H-1,2,3-triazole-4-carboxamide] |
| 109 | O=C(NCc1nnc(-c2ccccc2)s1)c1cn([C@@H]2CCC[C@H]2O)nn1 [Example 210, 1-((1R,2R)-2-hydroxycyclopentyl)-N-((5-phenyl-1,3,4-thiadiazol-2-yl)methyl)-1H-1,2,3-triazole-4-carboxamide] |
| 14 | CC(F)(F)Cn1cc(C(=O)NCc2nnc(-c3ccccc3)s2)nn1 [Example 211, 1-(2,2-difluoropropyl)-N-((5-phenyl-1,3,4-thiadiazol-2-yl)methyl)-1H-1,2,3-triazole-4-carboxamide] |
| 882 | Cc1nc(C)c(-n2cc(C(=O)NCc3nnc(-c4ccccc4)s3)nn2)s1 [Example 212, 1-(2,4-dimethylthiazol-5-yl)-N-((5-phenyl-1,3,4-thiadiazol-2-yl)methyl)-1H-1,2,3-triazole-4-carboxamide] |
| 3 | O=C(NCc1nnc(-c2ccccc2)s1)c1cn(CC(F)F)nn1 [Example 213] |
| 251 | O=C(NCc1nnc(-c2ccccc2)s1)c1cc(C(F)(F)F)no1 [Example 214, N-[(5-phenyl-1,3,4-thiadiazol-2-yl)methyl]-3-(trifluoromethyl)-1,2-oxazole-5-carboxamide] |
| 127 | O=C(NCc1nnc(-c2ccccc2)s1)c1noc2ccccc12 [Example 215, N-[(5-phenyl-1,3,4-thiadiazol-2-yl)methyl]-1,2-benzoxazole-3-carboxamide] |
| 326 | Cc1ccc(-n2cc(C(=O)NCc3ccc(-n4nccn4)cn3)nn2)c(C)n1 [Example 216, 1-(2,6-dimethylpyridin-3-yl)-N-{[5-(2H-1,2,3-triazol-2-yl)pyridin-2-yl]methyl}-1H-1,2,3-triazole-4-carboxamide] |
| 648 | Cn1cc(C(=O)NCc2cc(-c3ccc(Cl)cc3)no2)nn1 [Example 217, N-{[3-(4-chlorophenyl)-1,2-oxazol-5-yl]methyl}-1-methyl-1H-1,2,3-triazole-4-carboxamide] |
| 184 | Cn1cc(C(=O)NCc2cc(-c3ccccc3)no2)nn1 [Example 218, 1-methyl-N-[(3-phenyl-1,2-oxazol-5-yl)methyl]-1H-1,2,3-triazole-4-carboxamide] |
| 154 | Cn1cc(C(=O)NCc2nnc(-c3ccc(F)cc3)s2)nn1 [Example 219, N-{[5-(4-fluorophenyl)-1,3,4-thiadiazol-2-yl]methyl}-1-methyl-1H-1,2,3-triazole-4-carboxamide] |

| EC50 [nM] | Compound |
| --- | --- |
| 195 | Cc1ccc(-n2cc(C(=O)NCc3cc(-c4ccccc4Cl)no3)nn2)c(C)n1 [Example 220, N-{[3-(2-chlorophenyl)-1,2-oxazol-5-yl]methyl}-1-(2,6-dimethylpyridin-3-yl)-1H-1,2,3-triazole-4-carboxamide] |
| 722 | Cc1ccc(-n2cc(C(=O)NCc3cc(-c4cccc(Cl)c4)no3)nn2)c(C)n1 [Example 221, N-{[3-(3-chlorophenyl)-1,2-oxazol-5-yl]methyl}-1-(2,6-dimethylpyridin-3-yl)-1H-1,2,3-triazole-4-carboxamide] |
| 172 | Cc1ccc(-n2cc(C(=O)NCc3cc(-c4ccccc4Cl)on3)nn2)c(C)n1 [Example 222, N-{[5-(2-chlorophenyl)-1,2-oxazol-3-yl]methyl}-1-(2,6-dimethylpyridin-3-yl)-1H-1,2,3-triazole-4-carboxamide] |
| 58 | Cc1ccc(-n2cc(C(=O)NCc3cc(-c4cccc(F)c4)no3)nn2)c(C)n1 [Example 223, 1-(2,6-dimethylpyridin-3-yl)-N-{[3-(3-fluorophenyl)-1,2-oxazol-5-yl]methyl}-1H-1,2,3-triazole-4-carboxamide] |
| 832 | Cn1cc(C(=O)NCc2cc(-c3ccccc3Cl)no2)nn1 [Example 224, N-{[3-(2-chlorophenyl)-1,2-oxazol-5-yl]methyl}-1-methyl-1H-1,2,3-triazole-4-carboxamide] |
| 856 | Cn1cc(C(=O)NCc2cc(-c3ccccc3Cl)on2)nn1 [Example 225, N-{[5-(2-chlorophenyl)-1,2-oxazol-3-yl]methyl}-1-methyl-1H-1,2,3-triazole-4-carboxamide] |
| 349 | Cn1cc(C(=O)NCc2cc(-c3cccc(F)c3)no2)nn1 [Example 226, N-{[3-(3-fluorophenyl)-1,2-oxazol-5-yl]methyl}-1-methyl-1H-1,2,3-triazole-4-carboxamide] |
| 69 | Cc1ccc(-n2cc(C(=O)NCc3nnc(-c4ccc(F)cc4)s3)nn2)c(C)n1 [Example 227, 1-(2,6-dimethylpyridin-3-yl)-N-{[5-(4-fluorophenyl)-1,3,4-thiadiazol-2-yl]methyl}-1H-1,2,3-triazole-4-carboxamide] |
| 51 | Cc1ccc(-c2cc(C(=O)NCc3nnc(-c4ccccc4)s3)no2)c(C)n1 [Example 228, 5-(2,6-dimethylpyridin-3-yl)-N-[(5-phenyl-1,3,4-thiadiazol-2-yl)methyl]-1,2-oxazole-3-carboxamide] |
| 8 | COc1ccc(-n2cc(C(=O)NCc3nnc(-c4ccccc4)s3)nn2)c(C)n1 [Example 229, 1-(6-methoxy-2-methylpyridin-3-yl)-N-((5-phenyl-1,3,4-thiadiazol-2-yl)methyl)-1H-1,2,3-triazole-4-carboxamide] |
| 6 | Cc1nc(O)ccc1-n1cc(C(=O)NCc2nnc(-c3ccccc3)s2)nn1 [Example 230, 1-(6-hydroxy-2-methylpyridin-3-yl)-N-((5-phenyl-1,3,4-thiadiazol-2-yl)methyl)-1H-1,2,3-triazole-4-carboxamide] |
| 30 | O=C(NCc1cc(-c2ccccc2)no1)c1cn(CC(F)(F)F)nn1 [Example 231, N-((3-phenylisoxazol-5-yl)methyl)-1-(2,2,2-trifluoroethyl)-1H-1,2,3-triazole-4-carboxamide] |
| 6 | O=C(NCc1cc(-c2ccccc2)on1)c1cn(CC(F)(F)F)nn1 [Example 232, N-((5-phenylisoxazol-3-yl)methyl)-1-(2,2,2-trifluoroethyl)-1H-1,2,3-triazole-4-carboxamide] |
| 10 | O=C(NCc1nnc(-c2ccccc2)s1)c1cn(CCO)nn1 [Example 233, 1-(2-hydroxyethyl)-N-((5-phenyl-1,3,4-thiadiazol-2-yl)methyl)-1H-1,2,3-triazole-4-carboxamide] |
| 9 | Cc1ccc(-n2cc(C(=O)NCc3cc(-c4ccccc4)no3)nn2)c(C)n1 [Example 234, 1-(2,6-dimethylpyridin-3-yl)-N-((3-phenylisoxazol-5-yl)methyl)-1H-1,2,3-triazole-4-carboxamide] |
| 388 | Cc1ccc(-n2cc(C(=O)NCc3cc(-c4ccccn4)no3)nn2)c(C)n1 [Example 235, 1-(2,6-dimethylpyridin-3-yl)-N-((3-(pyridin-2-yl)isoxazol-5-yl)methyl)-1H-1,2,3-triazole-4-carboxamide] |
| 12 | COc1ccc(-n2cc(C(=O)NCc3nnc(-c4ccccc4)s3)nn2)cn1 [Example 236, 1-(6-methoxypyridin-3-yl)-N-((5-phenyl-1,3,4-thiadiazol-2-yl)methyl)-1H-1,2,3-triazole-4-carboxamide] |
